In patent publication EP0844825B1, “INSECTICIDAL N-(SUBSTITUTED ARYLMETHYL)-4- BIS(SUBSTITUTED PHENYL OR PYRIDYL)METHYL]PIPERIDINES” (FMC CORPORATION, priority 1995, dated 1996):

What was measured:
[1] = system: tobacco budworm (Heliothis veriscens [Fabricius]); assay: Foliar spray test on chick pea plants, tobacco budworm, 96 hour exposure; format: in vivo, Heliothis virescens; settings: rate of application 100 ppm, dead plus moribund insects, * = average of more than one test
Protocol: (§1) Candidate insecticides with high pl50 values from the diet test were tested for insecticidal activity in foliar evaluations against tobacco budworm, beet armyworm (Spodoptera exigua [Hubner]), and cabbage looper (Trichoplusia ni [Hubner])
(§2) In these tests against tobacco budworm and beet armyworm, nine-day-old chick pea plants (Cicer arietinum) were sprayed at 20 psi to runoff on both upper and lower leaf surfaces with solutions of test chemical to provide application rates as high as 1000 ppm of test chemical. The solvent used to prepare the solutions of test chemical was 10% acetone or methanol (v/v) and 0.1% of the surfactant octylphenoxypolyethoxyethanol in distilled water. Four replicates, each containing one chick pea plant, for each rate of application of test chemical were sprayed. The treated plants were transferred to a hood, where they were kept until the spray had dried.
(§3) The four chick pea plants for each replicate treated with test chemical as described above were removed from their pots by cutting the stems just above the soil line. The excised leaves and stems from the four plants in each replicate were placed in individual 8-ounce paper cups, each containing a moistened filter paper. Five second-instar (6 days old) tobacco budworms or beet armyworms (7-8 days old) were counted into each cup, taking care not to cause injury. An opaque plastic lid was placed on each cup, which was then held in a growth chamber for a 96 hour exposure period at 25°C and 50% relative humidity. At the end of the 96 hour exposure period the cups were opened, and the numbers of dead, moribund, and live insects were counted. Using the insect counts, the efficacy of the test chemical was expressed in percent control. Percent control is derived from the total number of dead insects (TD) plus the total number of moribund insects (TM) as compared to the total number of insects (TI) in the test: % Control =(TD+TM)/(TI)x 100 [formula]
(§4) The condition of the test plants was also observed for phytotoxicity and for reduction of feeding damage as compared to an untreated control.

[2] = system: cabbage looper (Trichoplusia ni [Hubner]); assay: Foliar spray test on pinto bean plants, cabbage looper, 96 hour exposure; format: in vivo; settings: rate of application 100 ppm, dead plus moribund insects, * = average of more than one test
Protocol: as §1, §2, §3, §4
Foliar tests with cabbage looper were conducted in the same manner as described above, the difference being that pinto bean plants (Phaseolus vulgaris) were used in place of chick pea plants.

[3] = system: beet armyworm (Spodoptera exigua [Hubner]); assay: Foliar spray test on chick pea plants, beet armyworm, 96 hour exposure; format: in vivo; settings: rate of application 100 ppm, dead plus moribund insects, * = average of more than one test
Protocol: as §1, §2, §3, §4

[4] = system: tobacco budworm (Heliothis virescens [Fabricius]); assay: Diet test: test chemical incorporated into artificial diet of tobacco budworm larvae, 5-day exposure; format: in vivo; settings: for IC50 / LC50 / mortality at 100 µM / pest or weed control at 100 µM: Heliothis virescens, 120 h; for IC50: read-out: pl50 (converted); for LC50: negative log of the concentration that provides 50% mortality, read-out: pLC50 (converted); for mortality at 100 µM / pest or weed control at 100 µM: feed or water; for mortality at 100 µM: read-out: Percent Mortality; for pest or weed control at 100 µM / Percent Growth Inhibition: rate of application 4 (negative log of molar concentration in the diet), second instar larvae, 25°C; for pest or weed control at 100 µM: read-out: Percent Growth Inhibition
Protocol: Candidate insecticides were incorporated into an artificial diet for evaluation of insecticidal activity against the tobacco budworm (Heliothis virescens [Fabricius]) in the following manner. Stock solutions of test chemical in dimethyl sulfoxide, ranging from […], were prepared for each rate of application. One hundred microliters of each of the stock solutions was manually stirred into 50 mL of a molten (65-70°C) wheat germ-based artificial diet. The 50 mL of molten diet containing the test chemical was poured evenly into twenty wells in the outer two rows on each side of a twenty-five well, five row plastic tray. (Each well in the tray was about 1 cm in depth, with an opening of 3 cm by 4 cm at the lip.) Molten diet containing only dimethyl sulfoxide at the levels used in the test chemical-treated diet was poured into the five wells in the third (center) row of the tray. Each tray therefore contained one test chemical at a single rate of application, together with an untreated control. The rates of application, expressed as the negative log of the molar concentration, and the corresponding concentrations of the stock solution prepared for each rate are shown below:
Single second instar tobacco budworm larvae, selected at a stage of growth at which they uniformly weigh about 5 mg each, were placed in each well. Upon completion of infestation, a sheet of clear plastic was heat-sealed over the top of the tray by use of a common household flat.iron. The trays were held at 25°C at 60% relative humidity for five days in a growth chamber. Lighting was set at 14 hours of light and 10 hours of darkness. After the 5-day exposure period, mortality counts were taken, and the surviving insects were weighed. From the weights of the surviving insects that fed on the treated diet as compared to those insects that fed on the untreated diet, the percent growth inhibition caused by each test chemical was determined. […] Also, where possible, the negative log of the concentration of the test chemical that provided 50% mortality (pLC50) was determined.

[5] = negative log of the concentration that provides 50% growth inhibition, by linear regression, 5 days, * = average of more than one test
[6] = 5 days, * = average of more than one test

Structure (SMILES)	mortality at 100 µM [4]	further results
COc1ccc(CN2CCC(C(O)(c3ccc(OC(F)(F)F)cc3)c3ccc(OC(F)(F)F)cc3)CC2)cc1 [Compound 1, N-(4-methoxyphenylmethyl)-4-[bis(4-trifluoromethoxyphenyl)hydroxymethyl]piperidine]	100%	Percent Control TBW [1]: 80%; Percent Control CL [2]: 100%; Percent Control BAW [3]: 55%; IC50 [4, 5]: 0.794 µM; LC50 [4, 6]: 25.1 µM; pest or weed control at 100 µM [4, 6]: 100%
Cc1cccnc1Oc1ccc(C[N+]2([O-])CCC(C(O)(c3ccc(C(F)(F)F)cc3)c3ccc(C(F)(F)F)cc3)CC2)cc1 (centres unmarked) [Compound 58]	100%	–
Cc1ccc[n+]([O-])c1Oc1ccc(CN2CCC(C(O)(c3ccc(C(F)(F)F)cc3)c3ccc(C(F)(F)F)cc3)CC2)cc1 [Compound 59]	100%	–
OC(c1ccc(C(F)(F)F)cc1)(c1ccc(C(F)(F)F)cc1)C1CCN(Cc2ccc(Oc3ncccc3C(F)(F)F)cc2)CC1 [Compound 60]	100%	–
[O-][N+]1(Cc2ccc(Oc3ncccc3C(F)(F)F)cc2)CCC(C(O)(c2ccc(C(F)(F)F)cc2)c2ccc(C(F)(F)F)cc2)CC1 (centres unmarked) [Compound 61]	100%	–
Cc1ccnc(Oc2ccc(CN3CCC(C(O)(c4ccc(C(F)(F)F)cc4)c4ccc(C(F)(F)F)cc4)CC3)cc2)c1 [Compound 62]	100%	IC50 [4, 5]: 0.631 µM; LC50 [4, 6]: 6.31 µM; Percent Growth Inhibition [4, 6]: 100%
Cc1ccnc(Oc2ccc(C[N+]3([O-])CCC(C(O)(c4ccc(C(F)(F)F)cc4)c4ccc(C(F)(F)F)cc4)CC3)cc2)c1 (centres unmarked) [Compound 63]	100%	–
OC(c1ccc(C(F)(F)F)cc1)(c1ccc(C(F)(F)F)cc1)C1CCN(Cc2ccc(Oc3cc(C(F)(F)F)ccn3)cc2)CC1 [Compound 64]	100%	–
[O-][n+]1ccc(C(F)(F)F)cc1Oc1ccc(CN2CCC(C(O)(c3ccc(C(F)(F)F)cc3)c3ccc(C(F)(F)F)cc3)CC2)cc1 [Compound 65]	25%	–
OC(c1ccc(C(F)(F)F)cc1)(c1ccc(C(F)(F)F)cc1)C1CCN(Cc2ccc(Oc3ccc(Cl)cn3)cc2)CC1 [Compound 66]	100%	–
[O-][N+]1(Cc2ccc(Oc3ccc(Cl)cn3)cc2)CCC(C(O)(c2ccc(C(F)(F)F)cc2)c2ccc(C(F)(F)F)cc2)CC1 (centres unmarked) [Compound 67]	70%	–
Cc1ccc(Oc2ccc(CN3CCC(C(O)(c4ccc(C(F)(F)F)cc4)c4ccc(C(F)(F)F)cc4)CC3)cc2)nc1 [Compound 68]	90%	–
Cc1ccc(Oc2ccc(C[N+]3([O-])CCC(C(O)(c4ccc(C(F)(F)F)cc4)c4ccc(C(F)(F)F)cc4)CC3)cc2)nc1 (centres unmarked) [Compound 69]	100%	–
OC(c1ccc(C(F)(F)F)cc1)(c1ccc(C(F)(F)F)cc1)C1CCN(Cc2ccc(Oc3ccc(C(F)(F)F)cn3)cc2)CC1 [Compound 70]	100%	–
[O-][N+]1(Cc2ccc(Oc3ccc(C(F)(F)F)cn3)cc2)CCC(C(O)(c2ccc(C(F)(F)F)cc2)c2ccc(C(F)(F)F)cc2)CC1 (centres unmarked) [Compound 71]	100%	–
N#Cc1ccc(Oc2ccc(CN3CCC(C(O)(c4ccc(C(F)(F)F)cc4)c4ccc(C(F)(F)F)cc4)CC3)cc2)nc1 [Compound 72]	100%	–
N#Cc1ccc(Oc2ccc(C[N+]3([O-])CCC(C(O)(c4ccc(C(F)(F)F)cc4)c4ccc(C(F)(F)F)cc4)CC3)cc2)nc1 (centres unmarked) [Compound 73]	100%	–

Structure (SMILES)	mortality at 100 µM [4]	further results
Cc1cccc(Oc2ccc(CN3CCC(C(O)(c4ccc(C(F)(F)F)cc4)c4ccc(C(F)(F)F)cc4)CC3)cc2)n1 [Compound 75]	100%	–
Cc1cccc(Oc2ccc(C[N+]3([O-])CCC(C(O)(c4ccc(C(F)(F)F)cc4)c4ccc(C(F)(F)F)cc4)CC3)cc2)n1 (centres unmarked) [Compound 76]	100%	IC50 [4, 5]: 0.631 µM; LC50 [4, 6]: 6.31 µM; Percent Growth Inhibition [4, 6]: 100%
Cc1cccc(Oc2ccc(C[N+]3([O-])CCC(C(O)(c4ccc(C(F)(F)F)cc4)c4ccc(C(F)(F)F)cc4)CC3)cc2)[n+]1[O-] (centres unmarked) [Compound 77]	60%	–
OC(c1ccc(C(F)(F)F)cc1)(c1ccc(C(F)(F)F)cc1)C1CCN(Cc2ccc(OCc3ccccn3)cc2)CC1 [Compound 78]	100%	–
[O-][N+]1(Cc2ccc(OCc3ccccn3)cc2)CCC(C(O)(c2ccc(C(F)(F)F)cc2)c2ccc(C(F)(F)F)cc2)CC1 (centres unmarked) [Compound 79]	100%	–
[O-][N+]1(Cc2ccc(OCc3cccnc3)cc2)CCC(C(O)(c2ccc(C(F)(F)F)cc2)c2ccc(C(F)(F)F)cc2)CC1 (centres unmarked) [Compound 82]	25%	–
CC(Oc1ccc(CN2CCC(C(O)(c3ccc(C(F)(F)F)cc3)c3ccc(C(F)(F)F)cc3)CC2)cc1)c1ccccn1 (centres unmarked) [Compound 83]	100%	IC50 [4, 5]: 1 µM; LC50 [4, 6]: 31.6 µM; Percent Growth Inhibition [4, 6]: 100%
CC(Oc1ccc(C[N+]2([O-])CCC(C(O)(c3ccc(C(F)(F)F)cc3)c3ccc(C(F)(F)F)cc3)CC2)cc1)c1ccccn1 (centres unmarked) [Compound 84]	100%	–
CC(C)(Oc1ccc(CN2CCC(C(O)(c3ccc(C(F)(F)F)cc3)c3ccc(C(F)(F)F)cc3)CC2)cc1)c1ccccn1 [Compound 86]	30%	–
OC(c1ccc(C(F)(F)F)cc1)(c1ccc(C(F)(F)F)cc1)C1CCN(Cc2ccc(Oc3ncccn3)cc2)CC1 [Compound 95]	100%	–
[O-][N+]1(Cc2ccc(Oc3ncccn3)cc2)CCC(C(O)(c2ccc(C(F)(F)F)cc2)c2ccc(C(F)(F)F)cc2)CC1 (centres unmarked) [Compound 96]	100%	–
OC(c1ccc(C(F)(F)F)cc1)(c1ccc(C(F)(F)F)cc1)C1CCN(Cc2ccc(-c3nnn(CCF)n3)cc2)CC1 [Compound 98]	100%	–
[O-][N+]1(Cc2ccc(-c3nnn(CCF)n3)cc2)CCC(C(O)(c2ccc(C(F)(F)F)cc2)c2ccc(C(F)(F)F)cc2)CC1 (centres unmarked) [Compound 99]	100%	–
OC(c1ccc(C(F)(F)F)cc1)(c1ccc(C(F)(F)F)cc1)C1CCN(Cc2ccc(-c3ncccn3)cc2)CC1 [Compound 100]	100%	–
[O-][N+]1(Cc2ccc(-c3ncccn3)cc2)CCC(C(O)(c2ccc(C(F)(F)F)cc2)c2ccc(C(F)(F)F)cc2)CC1 (centres unmarked) [Compound 101]	100%	–
OC(c1ccc(OC(F)(F)F)cc1)(c1ccccc1OC(F)(F)F)C1CCN(Cc2ccc(C3OCCO3)cc2)CC1 (centres unmarked) [Compound 103, N-[4-(1,3-dioxolan-2-yl)phenylmethyl]-4-[(4-trifluoromethoxyphenyl)(2-trifluoromethoxyphenyl)hydroxymethyl]piperidine]	100%	IC50 [4, 5]: ≤ 0.316 µM; LC50 [4, 6]: 12.6 µM; pest or weed control at 100 µM [4, 6]: 100%
CCn1nnc(-c2ccc(CN3CCC(C(O)(c4ccc(C(F)(F)F)cn4)c4ccc(C(F)(F)F)cn4)CC3)cc2)n1 [Compound 104]	100%	IC50 [4, 5]: ≤ 0.316 µM; LC50 [4, 6]: 0.398 µM; pl50 [4, 5]: 6.8; Percent Growth Inhibition [4, 6]: 100%
